{"source": "patent US10689344B2", "about": "“Biphenylamide derivative Hsp90 inhibitors” (University of Kansas, priority 2013, dated 2020)", "key": {"[1]": {"system": "SKBr3 (estrogen receptor negative, HER2 over-expressing breast cancer cells)", "test": "Anti-proliferation assay (MTS/PMS, 72 h), SKBr3", "type": "cell-based", "conditions": "Homo sapiens", "how_it_was_run": "(§1)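 Cells seeded at 2000/well, attached overnight, then exposed to compound at varying concentrations (1% DMSO final) for 72 h at 37° C, 5% CO2. Viability by MTS/PMS, normalised to 1% DMSO controls as 100% proliferation; IC50 from separate triplicate experiments.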"}, "[2]": {"system": "Hsp90-dependent client proteins (Her2, Raf, Akt) in MCF-7 cells", "test": "Western blot analyses of Hsp90-dependent client proteins from MCF-7 cell lysate", "type": "cell-based", "method": "(§2) FIG. 1—Western blot analyses of Hsp90-dependent client proteins from MCF-7 breast cancer cell lysate upon treatment with biphenyl derivatives. H represents a concentration equal to 5-fold of the anti-proliferative activity. L represents a concentration ½ of the anti-proliferative activity. Geldanamycin (G, 0.5 μM) and dimethylsulfoxide (D, 100%) were employed as positive and negative controls.\nas §2, with “FIGS. 2A & 2B—Western” for “FIG. 1—Western”, “derivatives. Concentrations (in μM) were indicated above each line.” for “derivatives.”, “equal to 0.5-fold” for “½”, “(GDA,” for “(G,”, “(DMSO,” for “(D,”\nFIG. 3—Western blot analyses of Hsp90-dependent client proteins from MCF-7 breast cancer cell lysate upon treatment with compound 6l. Concentrations (in μM) were indicated above each line, and geldanamycin (GDA, 0.5 μM) and dimethylsulfoxide (DMSO) were employed as positive and negative controls.\nMCF-7 cells were cultured as described above and treated with various concentrations of drug, GDA in DMSO (1% DMSO final concentration), or vehicle (DMSO) for 24 h. Cells were harvested in cold PBS and lysed in RIPA lysis buffer containing 1 mM PMSF, 2 mM sodium orthovanadate, and protease inhibitors on ice for 1 h. Lysates were clarified at 14000 g for 10 min at 4° C. Protein concentrations were determined using the Pierce BCA protein assay kit per the manufacturer's instructions. Equal amounts of protein (20 μg) were electrophoresed under reducing conditions, transferred to a nitrocellulose membrane, and immunoblotted with the corresponding specific antibodies. Membranes were incubated with an appropriate horseradish peroxidase-labeled secondary antibody, developed with a chemiluminescent substrate, and visualized."}, "[3]": {"system": "MCF-7 (estrogen receptor positive breast cancer cells)", "test": "Anti-proliferation assay (MTS/PMS, 72 h), MCF-7", "type": "cell-based", "conditions": "Homo sapiens", "how_it_was_run": "as §1"}, "SKBr3 cells": {"system": "SKBr3 cells", "conditions": "cited from earlier work"}, "[4]": {"system": "JMAR (Head and Neck Cancer)", "test": "Activity of compounds in cancer cell lines, JMAR", "type": "cell-based", "conditions": "Table 12, JMAR (Head and Neck Cancer)", "from_the_text": "Biological activity of these compounds of the present disclosure may be measured using a variety of different methods and techniques. In some embodiments of the present disclosure, the activity is measuring using anti-proliferation assays to determine an IC50 value for particular cell lines such as JMAR and MCF-7. Additionally, in other embodiments, the activity of the instant compounds is measuring using Western blot and measuring protein expression in a variety of different downstream poteins regulated by Hsp90.\n(§3) Cells were maintained in a 1:1 mixture of Advanced DMEM/F12 (Gibco) supplemented with non-essential amino acids, L-glutamine (2 mM), streptomycin (500 μg/mL), penicillin (100 units/mL), and 10% FBS. Cells were grown to confluence in a humidified atmosphere (37° C., 5% CO2), seeded (2000/well, 100 μL) in 96-well plates, and allowed to attach overnight. Compound at varying concentrations in DMSO (1% DMSO final concentration) was added, and cells were returned to the incubator for 72 h. At 72 h, the number of viable cells was determined using an MTS/PMS cell proliferation kit (Promega) per the manufacturer's instructions. Cells incubated in 1% DMSO were used at 100% proliferation, and values were adjusted accordingly. IC50 values were calculated from separate experiments performed in triplicate using GraphPad Prism."}, "SKME128 (Melanoma)": {"system": "SKME128 (Melanoma)", "test": "Activity of compounds in cancer cell lines, SKME128", "type": "cell-based", "conditions": "Table 12, SKME128 (Melanoma)", "method": "as §3"}}, "data": [{"compound": "CN1CCC(Oc2ccc(-c3cccc(NC(=O)c4ccc(Br)cc4)c3)cc2)CC1", "note": "[Compound 6l, 4-Bromo-N-(4′-((1-methylpiperidin-4-yl)oxy)-[1,1′-biphenyl]-3-yl)benzamide]", "values": [{"measurement": "IC50", "setting": "[1]; SK-BR-3, Table 2, para-meta biphenyl core with substituted benzylamide", "result": "1940 ± 110", "unit": "nM"}, {"measurement": "Hsp90-dependent client proteins Her2, Raf-1 and p-Akt (western blot)", "setting": "[2]; MCF-7 cell lysates, FIG. 3", "result": "degraded in a concentration dependent manner"}, {"measurement": "Hsp90 levels (western blot)", "setting": "[2]; MCF-7 cell lysates, FIG. 3", "result": "remained unchanged"}, {"measurement": "actin levels (western blot)", "setting": "[2]; MCF-7 cell lysates, FIG. 3", "result": "remained constant"}, {"measurement": "IC50", "setting": "[3]; MCF7, Table 2, para-meta biphenyl core with substituted benzylamide", "result": "880 ± 70", "unit": "nM"}]}, {"compound": "COc1cccc(-c2cc(C(=O)Nc3ccc(-c4ccc(OC5CCN(C)CC5)cc4)cc3)ccc2OC)c1", "note": "[Compound 9a, 3′,6-dimethoxy-N-(4′-((1-methylpiperidin-4-yl)oxy)-[1,1′-biphenyl]-4-yl)-[1,1′-biphenyl]-3-carboxamide]", "values": [{"measurement": "IC50", "setting": "[1]; SK-BR-3, Table 1, ortho, meta and para biphenyl cores", "result": "470 ± 60", "unit": "nM"}, {"measurement": "IC50", "setting": "[1]; SK-BR-3, Table 3, substituted para-para biphenyl core", "result": "470 ± 60", "unit": "nM"}, {"measurement": "IC50", "setting": "[1]; SK-BR-3, Table 5, modified linkers in para-para biphenyl core", "result": "470 ± 60", "unit": "nM"}, {"measurement": "IC50", "setting": "[1]; SK-BR-3, Table 7, para-para biphenyl core with modified ether groups", "result": "470 ± 60", "unit": "nM"}, {"measurement": "IC50", "setting": "[1]; SK-BR-3, Table 8, para-para biphenyl core with substituted biphenylamide group", "result": "470 ± 60", "unit": "nM"}, {"measurement": "non-Hsp90-dependent protein actin (western blot)", "setting": "[2]; MCF-7 cells, FIG. 1", "result": "not affected"}, {"measurement": "Hsp90 levels (western blot)", "setting": "[2]; MCF-7 cells, FIG. 1, all concentrations tested", "result": "remained constant"}, {"measurement": "Hsp90-dependent client proteins Her2, Raf, and Akt (western blot)", "setting": "[2]; MCF-7 cells, FIG. 1, at the same concentration needed to manifest anti-proliferative activity (H 5-fold, L 1/2)", "result": "degradation in a concentration-dependent manner"}, {"measurement": "IC50", "setting": "[3]; MCF7, Table 1, ortho, meta and para biphenyl cores", "result": "710 ± 20", "unit": "nM"}, {"measurement": "IC50", "setting": "[3]; MCF7, Table 3, substituted para-para biphenyl core", "result": "710 ± 20", "unit": "nM"}, {"measurement": "IC50", "setting": "[3]; MCF7, Table 5, modified linkers in para-para biphenyl core", "result": "710 ± 20", "unit": "nM"}, {"measurement": "IC50", "setting": "[3]; MCF7, Table 7, para-para biphenyl core with modified ether groups", "result": "710 ± 20", "unit": "nM"}, {"measurement": "IC50", "setting": "[3]; MCF7, Table 8, para-para biphenyl core with substituted biphenylamide group", "result": "710 ± 20", "unit": "nM"}]}, {"compound": "CO[C@@H]1[C@@H](OC(N)=O)[C@@H](O)[C@H](Oc2ccc3c(O)c(NC(=O)c4ccc(O)c(CC=C(C)C)c4)c(=O)oc3c2C)OC1(C)C", "note": "[Novobiocin]", "values": [{"measurement": "efficiency as Hsp90 C-terminal inhibitor", "setting": "SKBr3 cells", "result": "~700", "unit": "µM"}]}, {"compound": "CN1CCC(Oc2ccc(-c3cccc(NC(=O)c4ccc(Br)cc4)c3)cc2)CC1", "note": "[drawing 161]", "values": [{"measurement": "IC50", "setting": "[4]", "result": 110, "unit": "nM"}]}, {"compound": "COc1ccc(C(=O)Nc2ccc(Nc3ccc(OC4CCN(C)CC4)cc3)cc2)cc1", "note": "[drawing 162]", "values": [{"measurement": "IC50", "setting": "[4]", "result": 9.7, "unit": "nM"}]}, {"compound": "CN1CCC(Oc2ccc(-c3ccc(NC(=O)c4ccc(C(C)(C)C)cc4)cc3)cc2)CC1", "note": "[drawing 163]", "values": [{"measurement": "IC50", "setting": "SKME128 (Melanoma)", "result": 480, "unit": "nM"}]}]}
